According to patent US20220267380A1, “Glycopeptides Increasing Lipid Synthesis” (TFCHEM, priority 2019, published 2022):

Assays:
[1] = test system: normal human dermal fibroblasts (NHDF); assay: Identification of biological processes involved (DAVID / Gene Ontology functional annotation of modulated genes); conditions: 10 mg/ml, p-value≤0.05
Excerpt: Gene Ontology database has been more specifically used for the data interpretation. DAVID functional annotation part was used to cluster modulated genes into significant biological processes. […] DAVID database uses the Gene Ontology consortium (http://www.geneontology.org) vocabularies (GO terms) to describe gene products in terms of their associated biological processes. Among them, only biological processes with p-value≤0.05 were taken into account.
The gene modulations of NHDF treated with compound 1 (10 mg/ml), compound 3 (10 mg/ml) and compound 4 (10 mg/ml) vs control were analysed to cluster modulated genes into significant biological processes (p-value≤0.05).

[2] = test system: normal human dermal fibroblasts (NHDF); assay: Signal transduction pathway analysis (Ingenuity Pathway Analysis, activation z-score); conditions: 10 mg/ml
Excerpt: Signal transduction pathway analysis: the results were then processed with IPA (Ingenuity Pathway Analysis, Qiagen®) software to identify signal transduction pathways modulated by each treatment. This software takes into account the Fold Change values of each gene and, when there is enough information, the direction of modulation of the signal transduction pathways can be identified. The relevance of the effect of each treatment on a given pathway was quantified by z-score. The z-score predicts the directional change on that effect.
A more advanced bioinformatics analysis was performed using the Ingenuity Pathway Analysis software (IPA from Qiagen®). This analysis allows the identification of the impacted signaling pathways and predicts their modulation.

[3] = test system: normal human dermal fibroblasts (NHDF); assay: Microscopic observations of human dermal fibroblasts in culture (formation of lipid vesicles); assay type: cell-based; conditions: 48 h, vs untreated cells
Procedure: Normal human dermal fibroblasts (NHDF) were grown with Dulbecco's Modified Eagle
Medium (DMEM) supplemented with Fetal Calf Serum (FCS) 10%, antibiotics (Penicillin 50 U/ml—Streptomycin 50 μg/ml) and L-Glutamine 2 mM final. Cells were grown in 37° C. and 5% CO2 incubator.
Fibroblasts were seeded in 24-well plates and cultured in culture medium for 24 hours. The medium was then replaced by assay medium and cells were incubated for further 24 hours. For the assay, the medium was replaced by assay medium containing or not (control) the test compound at different concentrations. After 48 h the morphological observations were evaluated.

| SMILES | main biological processes involved [1] | result of the analysis of signaling pathways [2] | Activation z-score, synthesis of cholesterol ([2]; positive = stimulation) | Activation z-score, synthesis of lipid ([2]; positive = stimulation) | morphological observation of fibroblasts ([3]; 10 mg/ml) | morphological observation of fibroblasts ([3]; 20 mg/ml) | Activation z-score, Metabolism of cholesterol ([2]; positive = stimulation) | morphological observation of fibroblasts ([3]; 13 mg/ml) |
| --- | --- | --- | --- | --- | --- | --- | --- | --- |
| C[C@H](NC(=O)[C@H](C)NC(=O)[C@@H](N)CCCCNCC(F)(F)[C@]1(O)O[C@H](CO)[C@H](O)[C@H](O)[C@H]1O)C(=O)O [Compound 1] | the lipid metabolic process and the cholesterol biosynthetic process | predictive activation of the lipid synthesis and the cholesterol biosynthetic process at a transcriptional level | 2.169 | 2.668 | no effect | induced the formation of lipid vesicles in fibroblasts |  |  |
| N[C@@H](CCCCNCC(F)(F)[C@]1(O)O[C@H](CO)[C@H](O)[C@H](O)[C@H]1O)C(=O)O [Compound 3] | the lipid metabolic process and the cholesterol biosynthetic process | predictive activation of the lipid synthesis and the cholesterol biosynthetic process at a transcriptional level | 0.399 | 1.002 |  |  | 1.083 |  |
| CC(=O)N(CCCC[C@H](N)C(=O)O)CC(F)(F)[C@]1(O)O[C@H](CO)[C@H](O)[C@H](O)[C@H]1O [Compound 4] | the lipid metabolic process and the cholesterol biosynthetic process but also the ceramide metabolic process | predictive activation of the fatty acid and lipid synthesis and a stimulation of the adipocytes differentiation |  |  |  |  |  | induces the formation of lipid vesicles in fibroblasts and cell swelling |
